Reference: paper PMC9967085, “Properly Substituted Benzimidazoles as a New Promising Class of Nicotinate Phosphoribosyltransferase (NAPRT) Modulators” (Pharmaceuticals, 2023)
Like-named read-outs stand apart in the source and are kept apart here.

Legend:
[1] = biological target: NAPRT; set-up: method as in PMID 4255930; details: cited from earlier work
[2] = biological target: NAPRT; set-up: method as in PMID 4333776; details: cited from earlier work
[3] = system: NAPRT; set-up: method as in PMID 35890155; details: cited from earlier work
[4] = biological target: NAPRT; set-up: method as in PMID 35890147; details: cited from earlier work
[5] = biological target: T1, Human recombinant NAPRT (Homo sapiens, UniProt Q6XQN6); assay: HPLC-based NAPRT activity screening assay; assay type: biochemical
T1 construct: made in house
T1 sequence (Q6XQN6 1-538): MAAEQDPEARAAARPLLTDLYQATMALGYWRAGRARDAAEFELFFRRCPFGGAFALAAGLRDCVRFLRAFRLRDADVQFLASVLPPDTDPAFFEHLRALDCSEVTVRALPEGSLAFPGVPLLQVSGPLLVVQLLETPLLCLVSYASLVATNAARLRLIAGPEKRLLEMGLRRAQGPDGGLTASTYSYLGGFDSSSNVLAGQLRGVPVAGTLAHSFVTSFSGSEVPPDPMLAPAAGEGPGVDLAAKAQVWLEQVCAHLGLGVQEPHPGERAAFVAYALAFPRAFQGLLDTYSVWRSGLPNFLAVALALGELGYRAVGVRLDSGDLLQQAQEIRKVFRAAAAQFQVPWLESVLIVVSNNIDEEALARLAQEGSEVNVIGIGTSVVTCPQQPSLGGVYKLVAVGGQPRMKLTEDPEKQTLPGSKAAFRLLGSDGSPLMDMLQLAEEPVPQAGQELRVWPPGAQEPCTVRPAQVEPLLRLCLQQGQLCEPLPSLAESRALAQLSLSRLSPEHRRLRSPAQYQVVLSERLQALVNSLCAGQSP

[6] = 1 mM compound, 0.2 mM NA, 0.4 mM PRPP
[7] = 1 mM compound, 0.2 mM NA, 0.4 mM PRPP, read-out: % Inhibition
[8] = 1 mM compound, 0.2 mM NA, 0.4 mM PRPP, read-out: % Inhibition (not active class)

| Compound | inhibition at 1000 µM [5, 7] [%] | inhibition at 1000 µM [5, 8] [%] | -Fold Stimulation [5, 6] [fold] | -Fold Stimulation (not active class) [5, 6] | also measured |
| --- | --- | --- | --- | --- | --- |
| O=C(O)c1cccnc1F [Compound 2] | – | – | – | – | Ki [1]: 280 µM |
| CCCCC1C(=O)N(c2ccccc2)N(c2ccccc2)C1=O [Compound 4, phenylbutazone] | – | – | – | – | Ki [2]: 160 µM |
| O=C(O)c1ccccc1Nc1cccc(C(F)(F)F)c1 [Compound 5, flufenamic acid] | – | – | – | – | Ki [2]: 46 µM |
| Cc1cccc(Nc2ccccc2C(=O)O)c1C [Compound 6, mefenamic acid] | – | – | – | – | Ki [2]: 76 µM |
| O=C(O)c1ccccc1O [Compound 7, salicylic acid] | – | – | – | – | Ki [2]: 160 µM |
| CC(C)(C)C(=O)OCCCn1cc(CCCN2C[C@@H](O)[C@@H](O)[C@@H]2NC(=O)c2ccccc2)nn1 [Compound 8] | – | – | – | – | IC50 [3]: 327 µM |
| CC(C)(C)C(=O)OCCCn1cc(CCCN2C[C@@H](O)[C@@H](O)[C@@H]2Cn2cc(-c3ccccc3)nn2)nn1 [Compound 9] | – | – | – | – | IC50 [3]: 242 µM |
| NCc1cc2c(cc1Cl)OCO2 [Compound 10] | – | – | – | – | IC50 [3]: 160 µM |
| O=C(Cn1c(=O)sc2ccccc21)Nc1cccc(C(=O)O)c1 [Compound 11] | – | – | – | – | IC50 [3]: 232 µM |
| CC(Oc1ccccc1Cl)C(=O)Nc1cccc(C(=O)O)c1 (stereo not drawn) [Compound 12] | – | – | – | – | IC50 [3]: 265 µM |
| O=C(N[C@@H](C(=O)c1ccccc1)n1cnccc1=O)c1ccccc1 [Compound 13] | – | – | – | – | Ki [4]: 2300 µM |
| O=C(NC(Sc1ccncn1)C(=O)c1ccccc1)c1ccccc1 (stereo not drawn) [Compound 14] | – | – | – | – | Ki [4]: 89 µM |
| O=C(O)c1cnccc1O [Compound 15] | – | – | – | – | Ki [4]: 308 µM |
| O=C(O)c1cnsn1 [Compound 16] | – | – | – | – | Ki [4]: 295 µM |
| CC(=O)NCc1cccc(CNc2ccc3c(c2)nc(C)n3C)c1 [Compound 17, N-(3-(((1,2-dimethyl-1H-benzo[d]imidazol-5-yl)amino)methyl)benzyl)acetamide] | 30 | – | – | -^b (Not active, it is referred to compounds showing less than 10% inhibition or less than 1.10-fold stimulation) | % Inhibition [5, 6]: 30.3 ± 6.0% |
| CC(=O)Nc1cccc(CN(C)c2ccc3c(c2)nc(C)n3C)c1 [Compound 22, N-(3-(((1,2-dimethyl-1H-benzo[d]imidazol-5-yl)(methyl)amino)methyl)phenyl) acetamide] | 5 ± 1.2 | < 10 | – | - (Not active, it is referred to compounds showing less than 10% inhibition or less than 1.10-fold stimulation) | – |
| Cc1nc2cc(N(C)Cc3cccc(N)c3)ccc2n1C [Compound 24, N-(3-aminobenzyl)-N,1,2-trimethyl-1H-benzo[d]imidazol-5-amine] | – | < 10 | 1.44 ± 0.04 | – | Effect on NAPRT catalytic activity (in words) [5]: NAPRT activators |
| CC(=O)NCc1ccc(CNc2ccc3c(c2)nc(C)n3C)cc1 [Compound 25, N-(4-(((1,2-dimethyl-1H-benzo[d]imidazol-5-yl)amino)methyl)benzyl)acetamide] | 13 ± 3.1 | – | – | - (Not active, it is referred to compounds showing less than 10% inhibition or less than 1.10-fold stimulation) | Effect on NAPRT catalytic activity (in words) [5]: inhibit NAPRT activity |
| Cc1nc2cc(N(C)Cc3ccc(CN)cc3)ccc2n1C [Compound 31, N-(4-(aminomethyl)benzyl)-N,1,2-trimethyl-1H-benzo[d]imidazol-5-amine] | – | < 10 | 1.58 ± 0.07 | – | Effect on NAPRT catalytic activity (in words) [5]: NAPRT activators |

Now from value to compound, other results behind:

| inhibition at 1000 µM [5, 7] [%] | inhibition at 1000 µM [5, 8] [%] | -Fold Stimulation [5, 6] [fold] | Compound | -Fold Stimulation (not active class) [5, 6] | also measured |
| --- | --- | --- | --- | --- | --- |
| 0.6 ± 0.9 | < 10 | – | Cc1nc2cc(NCc3cccc(CN)c3)ccc2n1C [Compound 19, N-(3-(aminomethyl)benzyl)-1,2-dimethyl-1H-benzo[d]imidazol-5-amine] | - (Not active, it is referred to compounds showing less than 10% inhibition or less than 1.10-fold stimulation) | Effect on NAPRT catalytic activity (in words) [5]: inactive |
| – | < 10 | 1.25 ± 0.05 | Cc1nc2cc(NCc3cccc(N)c3)ccc2n1C [Compound 20, N-(3-aminobenzyl)-1,2-dimethyl-1H-benzo[d]imidazol-5-amine] | – | Effect on NAPRT catalytic activity (in words) [5]: NAPRT activators |
| 0 | < 10 | 0 | CC(=O)NCc1cccc(CN(C)c2ccc3c(c2)nc(C)n3C)c1 [Compound 21, N-(3-(((1,2-dimethyl-1H-benzo[d]imidazol-5-yl)(methyl)amino)methyl)benzyl) acetamide] | - (Not active, it is referred to compounds showing less than 10% inhibition or less than 1.10-fold stimulation) | – |
| – | < 10 | 1.14 ± 0.05 | Cc1nc2cc(N(C)Cc3cccc(CN)c3)ccc2n1C [Compound 23, N-(3-(aminomethyl)benzyl)-N,1,2-trimethyl-1H-benzo[d]imidazol-5-amine] | – | Effect on NAPRT catalytic activity (in words) [5]: NAPRT activators |
| 1.3 | < 10 | – | CC(=O)Nc1ccc(CNc2ccc3c(c2)nc(C)n3C)cc1 [Compound 26, N-(4-(((1,2-dimethyl-1H-benzo[d]imidazol-5-yl)amino)methyl)phenyl)acetamide] | - (Not active, it is referred to compounds showing less than 10% inhibition or less than 1.10-fold stimulation) | – |
| 1.9 ± 0.9 | < 10 | – | Cc1nc2cc(NCc3ccc(CN)cc3)ccc2n1C [Compound 27, N-(4-(aminomethyl)benzyl)-1,2-dimethyl-1H-benzo[d]imidazol-5-amine] | - (Not active, it is referred to compounds showing less than 10% inhibition or less than 1.10-fold stimulation) | – |
| 0 | < 10 | 0 | Cc1nc2cc(NCc3ccc(N)cc3)ccc2n1C [Compound 28, N-(4-aminobenzyl)-1,2-dimethyl-1H-benzo[d]imidazol-5-amine] | - (Not active, it is referred to compounds showing less than 10% inhibition or less than 1.10-fold stimulation) | – |
| 12 ± 2.2 | – | – | CC(=O)NCc1ccc(CN(C)c2ccc3c(c2)nc(C)n3C)cc1 [Compound 29, N-(4-(((1,2-dimethyl-1H-benzo[d]imidazol-5-yl)(methyl)amino)methyl)benzyl) acetamide] | - (Not active, it is referred to compounds showing less than 10% inhibition or less than 1.10-fold stimulation) | Effect on NAPRT catalytic activity (in words) [5]: inhibit NAPRT activity |
| 0 | < 10 | 0 | CC(=O)Nc1ccc(CN(C)c2ccc3c(c2)nc(C)n3C)cc1 [Compound 30, N-(4-(((1,2-dimethyl-1H-benzo[d]imidazol-5-yl)(methyl)amino)methyl)phenyl) acetamide] | - (Not active, it is referred to compounds showing less than 10% inhibition or less than 1.10-fold stimulation) | – |
| – | – | 1.08 ± 0.03 | N-(3-(((1,2-dimethyl-1H-benzo[d]imidazol-5-yl)(methyl)amino)methyl)benzyl) acetamide [Compound 33] | - (Not active, it is referred to compounds showing less than 10% inhibition or less than 1.10-fold stimulation) | % Inhibition (not active class) [5, 6]: - (Not active, it is referred to compounds showing less than 10% inhibition or less than 1.10-fold stimulation) |
| – | – | 1.47 ± 0.07 | N-(3-(((1,2-dimethyl-1H-benzo[d]imidazol-5-yl)amino)methyl)benzyl)acetamide [Compound 32] | – | Effect on NAPRT catalytic activity (in words) [5]: NAPRT activators; % Inhibition (not active class) [5, 6]: - (Not active, it is referred to compounds showing less than 10% inhibition or less than 1.10-fold stimulation) |
